ChEMBL document CHEMBL3637782, “GSK Tres Cantos Follow-up TB Screening Data” (2016)
≈ marks a conversion by molar mass, not a printed value.

The compounds below were run on Mycobacterium tuberculosis H37Rv (assay: GSK_TB: Minimum inhibitory concentration against isoniazid and rifampicin resistant clinical isolates of Mycobacterium tuberculosis). Conditions: ATCC25618.
Type: functional

Point of comparison: `CNc1snc(C)c1C(=O)NCCOc1ccc(OC)cc1`, MIC 0.9 µM (≈ 0.289 µg/mL). Against it:
- CCOCn1ccc(NS(=O)(=O)c2ccc(N)cc2)nc1=O — 22-fold higher, 20 µM (≈ 6.49 µg/mL)
- COc1ccc(-c2nnc3sc(Cc4csc(C)n4)nn23)cc1 — within 1.5-fold, 1.3 µM (≈ 0.446 µg/mL)
- Clc1nnc(N2CCCC2)c2ccccc12 — 1.5-fold lower, 0.6 µM (≈ 0.14 µg/mL)
- CN(Cc1ccc(Cl)cc1)C(=O)CCc1nc2ccccc2oc1=O — within 1.5-fold, 1.3 µM (≈ 0.464 µg/mL)
- Nc1ccc(C(O)CNCCc2ccccc2)cc1O (centres undefined) — within 1.5-fold, 1.3 µM (≈ 0.354 µg/mL)
- NC(=O)c1ccc(CN(C2CC2)S(=O)(=O)c2ccccc2F)cc1 — 5.6-fold higher, 5 µM (≈ 1.74 µg/mL)
- COc1ccc(CCNC(=O)C2(n3cnnn3)CCCCC2)cc1 — 2.8-fold higher, 2.5 µM (≈ 0.824 µg/mL)
- O=C(Nc1nc2c(s1)CCCc1cccnc1-2)c1ccccc1C(F)(F)F — within 1.5-fold, 1.3 µM (≈ 0.506 µg/mL)
